Data set [1] has as its system Brusone-Pilzes (Piricularia oryzae). The format is in vivo. The settings on record: Wirkstoff-Konzentration 0,8 g/m^2 applied to the water surface; rice (Asahi) inoculated 4 days later; assessed 7 days after inoculation; three pots per test.
Data set [2] concerns Reispflanzen (Varietät: Asahi). Particulars: in vivo.

Experimental findings from patent publication EP0135897A2 (priority 1983, dated 1985) are described below.

On to `CC1(CCl)C(CO)C1(Cl)Cl` (stereo not drawn) [Verbindung d. Erfindung, 2,2-Dichloro-(cis)-3-methyl-(trans)-3-chloromethylcyclopropanmethanol], for which the “Bekämpfungs-Index (%)” value in data set [1] was 100%. Besides, the Phyto-toxizität entry in data set [2] is “-”.

With `CC1(CCl)C(COC(=O)CCl)C1(Cl)Cl` [D-1, 2,2-Dichloro-(cis)-3-methyl-(trans)-3-chloromethylcyclopropanmethanol-chloroacetat], the “Bekämpfungs-Index (%)” value in data set [1] stood at 100%. In addition, in data set [2], the Phyto-toxizität entry is listed as “-”.
